Reference: ChEMBL document CHEMBL2439994, “Synthesis and biological evaluation of hydrazidomycin analogues” (Bioorg Med Chem Lett, 2013)
Each block holds one compound with its values, some of them ahead of it.

Assays:
HeLa = assay: Cytotoxicity against human HeLa cells after 72 hrs by methylene blue staining; type: functional
K562 = assay: Antiproliferative activity against human K562 cells after 72 hrs by resazurin dye reduction assay; type: functional; details: K562, 72 h
[1] = Antiproliferative activity against HUVEC after 72 hrs by resazurin dye reduction assay; type: cell-based; details: human, HUVEC cells
HT-29 = assay: Antiproliferative activity against human HT-29 cells after 72 hrs by resazurin dye reduction assay; type: functional; details: HT-29, 72 h

SMILES: CCCCCCCCCCCC/C=C/N(NC(=O)COC)C(=O)OC(C)(C)C
CC50 (HeLa): 57.7 µM | GI50 (K562): 41.4 µM | GI50 at 72 h [1]: 36.1 µM

SMILES: CCCCCCCCCCCC/C=C\N(NC(=O)CCl)C(=O)CCCCCCCCC
CC50 (HeLa): 104 µM | GI50 (K562): 18.4 µM | GI50 at 72 h [1]: 57.5 µM

SMILES: CCCCCCCCCCCCCCNNC(=O)COC
CC50 (HeLa): 59.6 µM | GI50 (K562): 66.2 µM | GI50 at 72 h [1]: 33.6 µM

SMILES: CCCCCCCCCCCC/C=C\N(NC(=O)COC)C(=O)OC(C)(C)C
CC50 (HeLa): 85.3 µM | GI50 (K562): 28.3 µM | GI50 at 72 h [1]: 15.8 µM

SMILES: CCCCCCCCCCCC/C=C\N(NC(C)=O)C(=O)CCCCCCCCC
CC50 (HeLa): 83.3 µM | GI50 (K562): 41.9 µM | GI50 at 72 h [1]: 39.7 µM

SMILES: CCCCCCCCCCNNC(=O)COC
CC50 (HeLa): 138 µM | GI50 (K562): 167 µM | GI50 at 72 h [1]: 156 µM

SMILES: CCCCCCCCCCCC/C=C\N(NC(=O)COC)C(=O)CCCCCCCCC [HYDRAZIDOMYCIN A]
CC50 (HeLa): 108 µM | GI50 (HT-29): 0.46 µM | GI50 (K562): > 110 µM | GI50 at 72 h [1]: 70.7 µM

SMILES: CCCCCCCCCCN(NC(=O)COC)C(=O)CCCCCCCCC
CC50 (HeLa): > 125 µM | GI50 (K562): 97.3 µM | GI50 at 72 h [1]: 114 µM

Second part, led by results:

GI50 (K562): 40.9 µM
SMILES: CCCCCCCCCCCCCCN(NC(=O)COC)C(=O)OC(C)(C)C
CC50 (HeLa): 41.9 µM | GI50 at 72 h [1]: 12.2 µM

GI50 (K562): > 110 µM
SMILES: CCCCCCCCCCCC/C=C/N(NC(=O)COC)C(=O)CCCCCCCCC
CC50 (HeLa): > 110 µM | GI50 at 72 h [1]: 46.2 µM

GI50 (K562): > 110 µM
SMILES: CCCCCCCCCCCCCCN(NC(=O)COC)C(=O)CCCCCCCCC
CC50 (HeLa): > 110 µM | GI50 at 72 h [1]: 103 µM

GI50 (K562): 58.7 µM
SMILES: CCCCCCCCCCCCCCN(N)C(=O)OC(C)(C)C
CC50 (HeLa): 96.5 µM | GI50 at 72 h [1]: 27.1 µM

GI50 (K562): 45 µM
SMILES: CCCCCCCC/C=C/N(NC(=O)COC)C(=O)OC(C)(C)C
CC50 (HeLa): 83.2 µM | GI50 at 72 h [1]: 49.9 µM

GI50 (K562): 61.3 µM
SMILES: CCCCCCCC/C=C\N(NC(=O)COC)C(=O)OC(C)(C)C
CC50 (HeLa): 104 µM | GI50 at 72 h [1]: 85.5 µM

GI50 (K562): 40.6 µM
SMILES: CCCCCCCCCCN(NC(=O)COC)C(=O)OC(C)(C)C
CC50 (HeLa): 104 µM | GI50 at 72 h [1]: 22.9 µM
